Source: article PMC3961306, “Comparison of the Cancer Gene Targeting and Biochemical Selectivities of All Targeted Kinase Inhibitors Approved for Clinical Use” (PLoS ONE, 2014)
Like-named read-outs stand apart in the source and are kept apart here.

Tests used:
Assay in all cases: Kinase profiling in a biochemical assay panel (mobility shift assays and ELISA), %-inhibition at 1 μM; selectivity entropy
[1] = target: T1, panel of more than 300 wild-type and mutant kinases (313 kinase panel) (Homo sapiens, UniProt P33981); settings: kinase TTK; compound at 1 μM
T1 sequence (P33981 1-857): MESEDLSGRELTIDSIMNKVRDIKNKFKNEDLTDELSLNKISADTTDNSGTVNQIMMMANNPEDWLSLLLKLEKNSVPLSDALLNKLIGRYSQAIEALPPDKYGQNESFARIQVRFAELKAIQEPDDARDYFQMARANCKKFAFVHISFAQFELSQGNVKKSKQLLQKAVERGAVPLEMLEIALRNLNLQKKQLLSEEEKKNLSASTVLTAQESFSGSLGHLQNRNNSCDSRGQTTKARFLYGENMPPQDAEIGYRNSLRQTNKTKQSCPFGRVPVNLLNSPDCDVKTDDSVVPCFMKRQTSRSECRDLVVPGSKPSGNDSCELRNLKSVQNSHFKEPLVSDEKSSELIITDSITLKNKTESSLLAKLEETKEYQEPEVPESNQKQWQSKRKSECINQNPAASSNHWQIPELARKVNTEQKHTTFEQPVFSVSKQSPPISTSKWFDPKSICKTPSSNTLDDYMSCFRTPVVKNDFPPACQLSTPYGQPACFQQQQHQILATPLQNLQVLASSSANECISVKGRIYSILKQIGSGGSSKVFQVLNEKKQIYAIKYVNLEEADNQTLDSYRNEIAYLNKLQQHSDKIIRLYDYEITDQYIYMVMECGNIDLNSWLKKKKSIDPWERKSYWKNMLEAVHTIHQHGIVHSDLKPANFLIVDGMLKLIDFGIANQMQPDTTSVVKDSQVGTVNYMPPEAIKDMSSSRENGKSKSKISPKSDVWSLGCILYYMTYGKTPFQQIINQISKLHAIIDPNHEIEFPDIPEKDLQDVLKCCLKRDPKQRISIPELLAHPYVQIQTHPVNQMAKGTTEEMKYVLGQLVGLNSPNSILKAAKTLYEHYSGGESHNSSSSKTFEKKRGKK

[2] = target: panel of more than 300 wild-type and mutant kinases (313 kinase panel) (Homo sapiens, UniProt Q9P289); settings: kinase MST4; 1 μM
Sequence of panel of more than 300 wild-type and mutant kinases (313 kinase panel) (Homo sapiens, UniProt Q9P289) (Q9P289 whole entry, change not shown): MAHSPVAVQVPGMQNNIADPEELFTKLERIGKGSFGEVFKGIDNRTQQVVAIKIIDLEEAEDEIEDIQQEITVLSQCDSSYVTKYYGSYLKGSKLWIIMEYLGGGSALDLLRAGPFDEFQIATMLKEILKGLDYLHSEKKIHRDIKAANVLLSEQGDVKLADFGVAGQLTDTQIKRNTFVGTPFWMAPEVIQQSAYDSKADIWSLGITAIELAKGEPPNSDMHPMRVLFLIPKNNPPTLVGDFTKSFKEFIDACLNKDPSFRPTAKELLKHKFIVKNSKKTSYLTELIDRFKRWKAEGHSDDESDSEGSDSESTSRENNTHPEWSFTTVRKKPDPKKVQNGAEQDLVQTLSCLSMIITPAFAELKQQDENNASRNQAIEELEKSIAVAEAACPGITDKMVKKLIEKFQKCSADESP

[3] = target: panel of more than 300 wild-type and mutant kinases (313 kinase panel) (Homo sapiens, UniProt Q13627)
[4] = target: panel of more than 300 wild-type and mutant kinases (313 kinase panel) (Homo sapiens, UniProt Q14680); settings: kinase MELK; compound at 1 μM
[5] = target: panel of more than 300 wild-type and mutant kinases (313 kinase panel) (Homo sapiens, UniProt P29597); settings: kinase TYK2; compound at 1 μM
Sequence of panel of more than 300 wild-type and mutant kinases (313 kinase panel) (Homo sapiens, UniProt P29597) (P29597 whole entry, change not shown): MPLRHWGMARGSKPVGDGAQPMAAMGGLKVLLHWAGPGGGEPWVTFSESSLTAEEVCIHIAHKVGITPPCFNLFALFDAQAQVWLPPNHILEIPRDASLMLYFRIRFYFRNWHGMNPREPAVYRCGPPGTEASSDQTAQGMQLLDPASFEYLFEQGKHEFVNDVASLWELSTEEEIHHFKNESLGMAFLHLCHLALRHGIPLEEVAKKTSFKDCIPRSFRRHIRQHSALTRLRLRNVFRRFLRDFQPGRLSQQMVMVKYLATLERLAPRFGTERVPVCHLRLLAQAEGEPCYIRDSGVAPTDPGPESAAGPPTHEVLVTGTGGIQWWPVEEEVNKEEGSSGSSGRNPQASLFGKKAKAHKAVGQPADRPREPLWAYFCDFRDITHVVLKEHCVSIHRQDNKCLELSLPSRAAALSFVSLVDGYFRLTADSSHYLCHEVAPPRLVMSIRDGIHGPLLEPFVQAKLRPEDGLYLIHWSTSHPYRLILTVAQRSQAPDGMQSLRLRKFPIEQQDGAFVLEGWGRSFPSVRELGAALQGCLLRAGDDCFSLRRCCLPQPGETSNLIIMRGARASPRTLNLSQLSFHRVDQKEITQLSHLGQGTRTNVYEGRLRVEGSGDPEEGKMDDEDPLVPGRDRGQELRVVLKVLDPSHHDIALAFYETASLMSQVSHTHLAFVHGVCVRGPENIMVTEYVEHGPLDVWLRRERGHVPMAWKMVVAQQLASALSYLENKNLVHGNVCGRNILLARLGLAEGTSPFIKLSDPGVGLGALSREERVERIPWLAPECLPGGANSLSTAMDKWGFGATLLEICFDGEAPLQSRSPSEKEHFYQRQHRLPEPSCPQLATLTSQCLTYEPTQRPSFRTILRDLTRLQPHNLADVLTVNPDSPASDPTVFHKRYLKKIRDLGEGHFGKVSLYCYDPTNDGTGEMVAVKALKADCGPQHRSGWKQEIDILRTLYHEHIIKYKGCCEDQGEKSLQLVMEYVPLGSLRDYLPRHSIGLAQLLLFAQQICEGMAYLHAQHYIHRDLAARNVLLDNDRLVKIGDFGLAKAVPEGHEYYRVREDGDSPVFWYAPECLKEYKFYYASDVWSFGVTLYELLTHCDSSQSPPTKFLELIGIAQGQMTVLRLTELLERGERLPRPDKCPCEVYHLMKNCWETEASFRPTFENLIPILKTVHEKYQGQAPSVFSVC

[6] = target: panel of more than 300 wild-type and mutant kinases (313 kinase panel) (Homo sapiens, UniProt Q9P1W9); settings: kinase PIM2; 1 μM
[7] = target: panel of more than 300 wild-type and mutant kinases (313 kinase panel) (Homo sapiens, UniProt Q15119); settings: kinase PDHK2; 1 μM
[8] = target: panel of more than 300 wild-type and mutant kinases (313 kinase panel) (Homo sapiens, UniProt P22455, N535K); settings: kinase FGFR4(N535K); compound at 1 μM
Sequence of panel of more than 300 wild-type and mutant kinases (313 kinase panel) (Homo sapiens, UniProt P22455, N535K) (P22455 22-802 N535K): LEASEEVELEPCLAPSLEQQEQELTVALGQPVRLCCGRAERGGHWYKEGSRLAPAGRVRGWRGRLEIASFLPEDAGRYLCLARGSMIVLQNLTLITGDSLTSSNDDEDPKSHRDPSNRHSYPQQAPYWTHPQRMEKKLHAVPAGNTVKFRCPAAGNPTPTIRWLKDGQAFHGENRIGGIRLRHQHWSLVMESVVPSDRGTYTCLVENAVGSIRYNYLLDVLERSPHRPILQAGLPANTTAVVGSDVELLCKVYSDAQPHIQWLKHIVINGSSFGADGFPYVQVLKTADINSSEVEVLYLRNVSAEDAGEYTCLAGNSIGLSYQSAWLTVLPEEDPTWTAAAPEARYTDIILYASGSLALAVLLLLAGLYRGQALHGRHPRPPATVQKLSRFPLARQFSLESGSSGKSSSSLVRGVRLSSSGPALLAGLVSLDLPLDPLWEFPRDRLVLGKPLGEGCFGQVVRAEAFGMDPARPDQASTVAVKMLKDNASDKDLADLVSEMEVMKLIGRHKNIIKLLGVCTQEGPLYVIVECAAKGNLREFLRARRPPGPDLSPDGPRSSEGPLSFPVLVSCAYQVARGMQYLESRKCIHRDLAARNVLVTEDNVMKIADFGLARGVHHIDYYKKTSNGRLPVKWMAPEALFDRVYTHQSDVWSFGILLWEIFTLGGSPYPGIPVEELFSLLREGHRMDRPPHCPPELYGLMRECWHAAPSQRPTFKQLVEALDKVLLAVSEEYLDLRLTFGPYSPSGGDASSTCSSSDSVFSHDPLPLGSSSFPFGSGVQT

[9] = target: panel of more than 300 wild-type and mutant kinases (313 kinase panel) (Homo sapiens, UniProt P78362); settings: kinase SRPK2; 1 μM
[10] = target: panel of more than 300 wild-type and mutant kinases (313 kinase panel) (Homo sapiens, UniProt P51451); settings: kinase BLK; 1 μM compound
Sequence of panel of more than 300 wild-type and mutant kinases (313 kinase panel) (Homo sapiens, UniProt P51451) (P51451 whole entry, change not shown): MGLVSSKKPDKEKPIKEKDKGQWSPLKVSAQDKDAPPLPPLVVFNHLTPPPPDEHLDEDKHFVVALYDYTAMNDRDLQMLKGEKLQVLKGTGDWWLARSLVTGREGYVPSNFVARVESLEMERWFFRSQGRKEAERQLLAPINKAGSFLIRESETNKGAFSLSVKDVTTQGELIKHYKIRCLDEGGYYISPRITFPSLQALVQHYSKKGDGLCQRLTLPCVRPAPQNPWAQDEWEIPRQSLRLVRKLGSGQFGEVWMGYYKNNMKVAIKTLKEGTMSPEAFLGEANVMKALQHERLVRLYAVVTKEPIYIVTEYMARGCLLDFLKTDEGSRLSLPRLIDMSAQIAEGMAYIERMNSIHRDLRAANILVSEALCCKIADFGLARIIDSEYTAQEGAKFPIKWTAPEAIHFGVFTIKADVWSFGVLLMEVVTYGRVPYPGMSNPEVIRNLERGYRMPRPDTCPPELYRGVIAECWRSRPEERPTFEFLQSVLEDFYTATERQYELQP

[11] = target: panel of more than 300 wild-type and mutant kinases (313 kinase panel) (Homo sapiens, UniProt P42684); settings: kinase ARG; 1 μM compound
[12] = target: panel of more than 300 wild-type and mutant kinases (313 kinase panel) (Homo sapiens, UniProt Q15349); settings: kinase RSK3; 1 μM
[13] = target: panel of more than 300 wild-type and mutant kinases (313 kinase panel) (Homo sapiens, UniProt O60674); settings: kinase JAK2; compound at 1 μM
Sequence of panel of more than 300 wild-type and mutant kinases (313 kinase panel) (Homo sapiens, UniProt O60674) (O60674 whole entry, change not shown): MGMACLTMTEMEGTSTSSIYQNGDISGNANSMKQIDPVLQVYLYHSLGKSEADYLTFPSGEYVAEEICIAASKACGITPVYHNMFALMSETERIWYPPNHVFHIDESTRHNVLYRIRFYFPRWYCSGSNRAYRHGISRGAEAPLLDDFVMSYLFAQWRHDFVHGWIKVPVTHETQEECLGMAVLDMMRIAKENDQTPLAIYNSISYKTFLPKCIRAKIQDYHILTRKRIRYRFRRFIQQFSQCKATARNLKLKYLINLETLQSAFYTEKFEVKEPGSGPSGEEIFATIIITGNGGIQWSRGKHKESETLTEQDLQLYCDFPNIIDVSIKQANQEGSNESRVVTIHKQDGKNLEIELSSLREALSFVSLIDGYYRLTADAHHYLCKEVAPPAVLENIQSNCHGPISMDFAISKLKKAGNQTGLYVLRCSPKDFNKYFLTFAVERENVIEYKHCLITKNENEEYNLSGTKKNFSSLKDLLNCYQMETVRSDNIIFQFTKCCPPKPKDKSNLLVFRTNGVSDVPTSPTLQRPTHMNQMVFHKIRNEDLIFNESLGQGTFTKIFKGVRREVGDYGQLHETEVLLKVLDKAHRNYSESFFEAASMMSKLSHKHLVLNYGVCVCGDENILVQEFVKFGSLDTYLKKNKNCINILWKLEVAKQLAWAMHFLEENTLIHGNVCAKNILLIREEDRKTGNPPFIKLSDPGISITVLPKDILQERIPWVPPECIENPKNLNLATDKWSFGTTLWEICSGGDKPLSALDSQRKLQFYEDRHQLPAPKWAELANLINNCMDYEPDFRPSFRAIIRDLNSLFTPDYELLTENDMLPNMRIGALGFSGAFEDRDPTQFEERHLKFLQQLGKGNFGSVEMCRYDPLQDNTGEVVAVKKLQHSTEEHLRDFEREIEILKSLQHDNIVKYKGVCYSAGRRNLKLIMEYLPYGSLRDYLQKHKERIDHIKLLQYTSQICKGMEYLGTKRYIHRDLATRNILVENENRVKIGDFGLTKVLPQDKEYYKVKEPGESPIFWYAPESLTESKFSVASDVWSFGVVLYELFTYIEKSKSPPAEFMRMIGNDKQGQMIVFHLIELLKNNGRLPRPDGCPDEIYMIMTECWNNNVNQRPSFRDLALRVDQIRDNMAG

[14] = kinase DYRK1A, compound at 1 μM

| SMILES | %-inhibition of TTK [1] | %-inhibition of MST4 [2] | %-inhibition of DYRK1A [3, 14] | %-inhibition of MELK [4] | %-inhibition of TYK2 [5] | %-inhibition of PIM2 [6] | %-inhibition of PDHK2 [7] | %-inhibition of FGFR4(N535K) [8] | %-inhibition of SRPK2 [9] | %-inhibition, BLK [10] | %-inhibition, ARG [11] | %-inhibition of RSK3 [12] | %-inhibition of JAK2 [13] | %-inhibition of DYRK1A [3] |
| --- | --- | --- | --- | --- | --- | --- | --- | --- | --- | --- | --- | --- | --- | --- |
| CO[C@H]1C[C@@H]2CC[C@@H](C)[C@@](O)(O2)C(=O)C(=O)N2CCCC[C@H]2C(=O)O[C@H]([C@H](C)C[C@@H]2CC[C@@H](OCCO)[C@H](OC)C2)CC(=O)[C@H](C)/C=C(\C)[C@@H](O)[C@@H](OC)C(=O)[C@H](C)C[C@H](C)/C=C/C=C/C=C/1C [everolimus] | -2.68% | -5.58% | -11% | -3.33% | -7% | -7% | 4% | 9% | -10% | -7% | 1.07% | -9% |  |  |
| CCN(CC)CCNC(=O)c1c(C)[nH]c(/C=C2\C(=O)Nc3ccc(F)cc32)c1C [sunitinib] |  | 34% |  | 95% |  |  |  |  |  | 96% |  |  |  |  |
| CC(=O)Nc1cccc(-n2c(=O)n(C3CC3)c(=O)c3c(Nc4ccc(I)cc4F)n(C)c(=O)c(C)c32)c1 [trametinib] | 59% | -2.23% | -1.23% | -0.588% | 2.16% | -4% | -0.542% | -5.47% | -0.868% | -2.79% | -4% | -5% |  |  |
| CN(C)C/C=C/C(=O)Nc1cc2c(Nc3ccc(F)c(Cl)c3)ncnc2cc1O[C@H]1CCOC1 [afatinib] |  |  |  |  |  |  | -2.76% |  |  |  |  |  |  |  |
| N#CC[C@H](C1CCCC1)n1cc(-c2ncnc3[nH]ccc23)cn1 [ruxolitinib] | 2% | -3% | -5% | 34% |  | -4% | -4% | 4.48% | 9% | -1% | 6% | 9% |  |  |
| CC(C)(C)c1nc(-c2cccc(NS(=O)(=O)c3c(F)cccc3F)c2F)c(-c2ccnc(N)n2)s1 [dabrafenib] | -22% | -7% | 16% | 82% | 10% | 0.238% | 0.108% | 8% | 11% | 80% | 54% |  |  |  |
| Cc1ccc(C(=O)Nc2ccc(CN3CCN(C)CC3)c(C(F)(F)F)c2)cc1C#Cc1cnc2cccnn12 [ponatinib] |  |  |  |  | 66% | 3.41% | -0.22% |  | -3% | 97% | 100% | 62% | 92% |  |
| Cc1ccc(Nc2nccc(N(C)c3ccc4c(C)n(C)nc4c3)n2)cc1S(N)(=O)=O [pazopanib] | 31% | -3.23% |  | -0.665% | 5.31% | -4% | -4.23% |  | -4% | 62% | 67% | 7% | 50% |  |
| CO[C@H]1C[C@@H]2CC[C@@H](C)[C@@](O)(O2)C(=O)C(=O)N2CCCC[C@H]2C(=O)O[C@H]([C@H](C)C[C@@H]2CC[C@@H](OC(=O)C(C)(CO)CO)[C@H](OC)C2)CC(=O)[C@H](C)/C=C(\C)[C@@H](O)[C@@H](OC)C(=O)[C@H](C)C[C@H](C)/C=C/C=C/C=C/1C [temsirolimus] | -22% | -3.42% | -3% | -1.66% | -6.58% | -6% | -2.2% | 9% | -3.79% | -12% | -1.55% | -3% |  |  |
| Cc1nc(Nc2ncc(C(=O)Nc3c(C)cccc3Cl)s2)cc(N2CCN(CCO)CC2)n1 [dasatinib] |  |  |  |  |  | 5% |  |  |  | 103% |  |  |  |  |
| CS(=O)(=O)CCNCc1ccc(-c2ccc3ncnc(Nc4ccc(OCc5cccc(F)c5)c(Cl)c4)c3c2)o1 [lapatinib] | 0.257% |  |  | -3.71% | -10% | 0.254% | -5% |  | 4.47% | 24% | 11% | 5.43% | -1.58% | 3.25% |
